Twelve molecules from paper doi:10.1101/2024.02.15.580468v1, “Morphing Cholinesterase Inhibitor Amiridine into Multipotent Drugs for the Treatment of Alzheimer’s Disease” (biorxiv, 2024) can be followed below.

Where two headings read alike, the source gives them in different places.

Series [1] concerns the target T1, hAChE (human recombinant acetylcholinesterase) (Homo sapiens, UniProt P22303).
T1 construct: gene ACHE; recombinant enzyme, purchased from Sigma-Aldrich
In words: biochemical. More on the design: modified Ellman assay, cholinesterase activity, absorbance at 412 nm. On the procedure:
(§1) The inhibitory activities of 5–7 and all the reference compounds were determined using modified Ellman’s method against human recombinant AChE (hAChE, E.C. 3.1.1.7, purchased from Sigma-Aldrich, Prague, Czech Republic) and human plasmatic BChE (hBChE, E.C. 3.1.1.8, purchased from Sigma-Aldrich, Prague, Czech Republic). The results are expressed as IC50 (the concentration of the compound that is required to reduce 50% of cholinesterase activity). Other used compounds – phosphate buffer solution (PBS, pH = 7.4), 5,5’-dithio-bis(2-nitrobenzoic) acid (Ellman’s reagent, DTNB), acetylthiocholine (ATCh) and butyrylthiocholine (BTCh) were also commercially available and were purchased from Sigma-Aldrich (Prague, Czech Republic). During the measurement, 96-well microplates from polystyrene (ThermoFisher Scientific, Waltham, MA, USA) were used. The solutions of corresponding enzyme in PBS were prepared up to final activity 0.002 U/µL. The assay medium (100 µL) consisted of cholinesterase (10 µL), DTNB (20 µL of 0.01 M solution) and PBS (40 µL of 0.1 M solution). The solutions of the tested compounds (10 µL of different concentrations) were pre- incubated for 5 minutes in the assay medium and then solution of substrate (20 µL of 0.01 M ATCh or BTCh iodide solution) was added to initiate the reaction. The increase of absorbance was measured at 412 nm using Multimode microplate reader Synergy 2 (BioTek Inc., Winooski, VT, USA). For the calculation of the resulting measured activity (the percentage of inhibition I) following formula was used: [drawing 1] where ΔAi indicates absorbance change provided by adequate enzyme exposed to corresponding inhibitor and ΔA0 indicates absorbance change when a solution of PBS was added instead of a solution of inhibitor. Software Microsoft Excel (Redmont, WA, USA) and GraphPad Prism version 5.02 for Windows (GraphPad Software, San Diego, CA, USA) were used for the statistical data evaluation. ChEs are enzymes responsible for the hydrolysis and metabolism of various endogenous and exogenous substrates, that are broadly studied in association with disease conditions like myasthenia gravis or AD. The primary attention in the development of AD drugs has been paid to AChE inhibitors. Nevertheless, there is growing interest in nonselective or BChE-selective inhibitors due to the compensatory role of BChE when AChE levels are depleted during the progression of AD [23]. Selective BChE inhibitors may be beneficial for patients in moderate-to-severe stages of AD [23, 24]. […] Accordingly, we assessed the inhibition activities of these novel compounds against human recombinant AChE (hAChE) and human serum BChE (hBChE) following a modified spectrophotometric protocol developed by Ellman et al.. […] Complete data are available in the Supplementary Information (Table S1), including the inhibition percentages for all derivatives. Amiridine hydrochloride (amiridine.HCl) and tacrine (THA) were used as reference compounds. […] Only a superficial structure-activity relationship for AChE inhibition can be drawn from the obtained data. […] The presence of any substituent on the benzothiazole core enhanced anti-AChE activity, with the best-tolerated position for the substituent being 6 for derivatives with halogen atoms (7b-d with bromine or 7g-h with [compound left out]. h

The target in series [2] is T2, hBChE (human serum / plasmatic butyrylcholinesterase) (Homo sapiens, UniProt P06276).
T2 construct: gene BCHE; native enzyme from human plasma/serum, purchased from Sigma-Aldrich
T2 sequence (P06276 29-602): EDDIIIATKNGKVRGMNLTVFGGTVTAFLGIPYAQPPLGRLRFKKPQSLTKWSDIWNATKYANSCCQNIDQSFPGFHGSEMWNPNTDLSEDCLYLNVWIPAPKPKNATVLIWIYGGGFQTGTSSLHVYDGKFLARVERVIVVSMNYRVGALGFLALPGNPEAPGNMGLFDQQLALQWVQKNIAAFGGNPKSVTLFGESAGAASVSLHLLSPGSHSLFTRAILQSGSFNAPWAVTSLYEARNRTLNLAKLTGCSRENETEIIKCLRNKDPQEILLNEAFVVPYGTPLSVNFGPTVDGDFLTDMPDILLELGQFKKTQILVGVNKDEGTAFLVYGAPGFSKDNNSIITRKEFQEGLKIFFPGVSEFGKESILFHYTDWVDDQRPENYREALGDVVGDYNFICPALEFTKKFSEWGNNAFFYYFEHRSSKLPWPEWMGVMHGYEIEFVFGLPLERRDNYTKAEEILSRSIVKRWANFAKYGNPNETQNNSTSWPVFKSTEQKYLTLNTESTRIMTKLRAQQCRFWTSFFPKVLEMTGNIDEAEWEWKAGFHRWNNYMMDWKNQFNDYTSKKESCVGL
In words: biochemical. More on the design: modified Ellman assay, cholinesterase activity, absorbance at 412 nm. Here is the method:
as §1

A short description of series [3]: in vitro. More on the design: MTT viability assay, undifferentiated SH-SY5Y cells. Conditions: human, undifferentiated sh-sy5y cells, read-out: SH-SY5Y IC50. On the procedure:
(§2) The cytotoxic profile of 5–7 was carried through the use of the MTT (3-(4,5-dimethylthiazol-2-yl)-2,5-diphenyltetrazolium bromide) assay on human neuroblastoma (SH-SY5Y) and hepatocellular carcinoma (HepG2) cell lines, following established protocols. The cytotoxicity was assessed on SH-SY5Y cells in undifferentiated and in differentiated form. The data obtained from the measurements on the undifferentiated SH-SY5Y and HepG2 cells are summarized in Table 1 for 5c-d, 7c and 7g, as well as for the reference compounds amiridine hydrochloride and THA. Additional data can be found in Supplementary Information (Table S2 and Fig. S1). The both cell lines were cultured according to ECACC recommended conditions and seeded into 96-well plates in 100 µL and density of 8000 per well. For evaluation of cytotoxicity of the differentiated form the SH-SY5Y cells also underwent 9-day differentiation protocol into mature neurons according to Riegerová et al .. The tested compounds were dissolved in DMSO (Sigma Aldrich) or in phosphate buffer saline (PBS, Sigma Aldrich) and subsequently in the growth medium - high glucose Dulbecco’s Modified Eagle’s medium (DMEM; Sigma-Aldrich, D6429). […] Then, the differentiated SH-SY5Y cells were treated with concentrations corresponding to IC50 values obtained from the cytotoxicity measurement using undifferentiated SH-SY5Y cells. Cells were exposed to a tested compound for 24 h. Then the medium was replaced by a medium containing 10 μM of MTT and cells were allowed to produce formazan for another approximately 3 h under surveillance. Thereafter, medium was aspirated and purple crystals of MTT formazan were dissolved in 100 μL DMSO under shaking. Cell viability was assessed spectrophotometrically by the amount of formazan produced. Absorbance was measured at 570 nm with 650 nm reference wavelength on Spark (Tecan Group Ltd, Switzerland). The IC50 value was then calculated from the control-subtracted triplicates using non-linear regression (four parameters) of GraphPad Prism 9 software. Final IC50 and SEM values were obtained as a mean of three independent measurements.

Series [4] is described as follows: in vitro. To be noted: human, hepg2 cells; read-out: HepG2 IC50. More on the design: MTT viability assay, HepG2 cells. On the procedure:
as §2

The nature of series [5]: in vitro. More on the design: PAMPA blood-brain barrier permeability, effective permeability Pe. To be noted: PAMPA-BBB Pe. The source says:
page 5 / Table S2. Cytotoxicity profiles of 5–7 on SH-SY5Y cell line and predictions to BBB penetration by PAMPA results. / Pe (10^-6 cm.s^-1)
For orientation: PAMPA measures passive passage across an artificial lipid membrane.

The target of series [6] is T2, hBChE (human serum / plasmatic butyrylcholinesterase). In words: modified Ellman assay, […] nm. It counts as biochemical. (In general: In Ellman's method for cholinesterases, released thiocholine reacts with DTNB.)

T1 sequence (P22303 32-614): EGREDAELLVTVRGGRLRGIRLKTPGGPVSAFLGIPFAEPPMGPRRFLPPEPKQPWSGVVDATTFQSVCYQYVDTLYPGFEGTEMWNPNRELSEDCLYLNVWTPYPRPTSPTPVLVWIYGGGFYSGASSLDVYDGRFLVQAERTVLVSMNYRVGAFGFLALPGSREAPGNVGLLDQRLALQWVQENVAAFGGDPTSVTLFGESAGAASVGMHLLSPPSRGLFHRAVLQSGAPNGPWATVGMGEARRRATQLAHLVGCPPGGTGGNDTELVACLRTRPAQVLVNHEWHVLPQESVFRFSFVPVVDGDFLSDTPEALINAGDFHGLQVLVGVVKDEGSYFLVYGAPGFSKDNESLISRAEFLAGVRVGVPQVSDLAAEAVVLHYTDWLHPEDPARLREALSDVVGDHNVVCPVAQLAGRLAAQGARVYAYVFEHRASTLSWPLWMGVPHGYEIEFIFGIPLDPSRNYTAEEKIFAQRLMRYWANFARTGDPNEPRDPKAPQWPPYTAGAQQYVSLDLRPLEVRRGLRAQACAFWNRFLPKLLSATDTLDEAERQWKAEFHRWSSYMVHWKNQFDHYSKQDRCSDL

Consider `CC12CC3CC(C)(C1)CC(NCC(=O)Nc1c4c(nc5c1CCC5)CCCC4)(C3)C2` [5b], for which the figures for the inhibition at 1 µM in series [1] and in series [2] were 9.13 ± 0.48% and 18.6 ± 0.65%, respectively. Further, the CC50 at 24 h in “in vitro [3]” turned out to be 31 ± 2.76 µM; in the series “in vitro [4]”, 19.5 ± 1.72 µM. In the series “in vitro [5]”, this molecule displayed a Papp of 7.63 ± 0.09 ×10⁻⁶ cm/s.
Consider `Clc1nc2ccccc2s1` [7a, 2-chlorobenzothiazole], for which the inhibition at 1 µM was 1.46 ± 0.17% in series [1] and 7.19 ± 0.91% in series [2]. The CC50 at 24 h in “in vitro [3]” is 72.3 ± 6.89 µM; in “in vitro [4]”, not below 200 µM. The apparent permeability coefficient (Papp) in the series “in vitro [5]” was 20.6 ± 0.44 ×10⁻⁶ cm/s.
For `O=C(CNc1nc2ccc(Br)cc2s1)Nc1c2c(nc3c1CCC3)CCCC2` [7b, 2-[(6-bromo-1,3-benzothiazol-2-yl)amino]-N-{1H,2H,3H,5H,6H,7H,8H-cyclopenta[b]quinolin-9-yl}acetamide], in that order: 18.5 ± 0.37%, 10.83 ± 0.09%, not below 200 µM, not below 200 µM and 3.74 ± 0.36 ×10⁻⁶ cm/s.
Consider `O=C(CNc1nc2cc(Br)ccc2s1)Nc1c2c(nc3c1CCC3)CCCC2` [7c, 2-[(5-bromo-1,3-benzothiazol-2-yl)amino]-N-{1H,2H,3H,5H,6H,7H,8H-cyclopenta[b]quinolin-9-yl}acetamide], for which the IC50 in series [6] came out at 4.9 ± 0.4 µM. Further, the inhibition at 1 µM in series [1] turned out to be 15.7 ± 1.17%; in series [2], 25 ± 2.39%. The CC50 at 24 h in “in vitro [3]” amounted to 17.7 ± 2.34 µM; in “in vitro [4]”, 21.61 ± 0.21 µM. This molecule also came in with a Papp in “in vitro [5]” of 2.13 ± 1.04 ×10⁻⁶ cm/s.
With `O=C(CNc1nc2c(Br)cccc2s1)Nc1c2c(nc3c1CCC3)CCCC2` [7d, 2-[(4-bromo-1,3-benzothiazol-2-yl)amino]-N-{1H,2H,3H,5H,6H,7H,8H-cyclopenta[b]quinolin-9-yl}acetamide], the inhibition at 1 µM was 1.8 ± 0.33% in series [1] and 6.73 ± 0.45% in series [2]. Besides, the CC50 at 24 h in the series “in vitro [3]” came to 111 ± 5.6 µM; in “in vitro [4]” it was 14.5 ± 1.84 µM. The same molecule returned a Papp in the series “in vitro [5]” of 2.62 ×10⁻⁶ cm/s.
For `N#Cc1ccc2sc(NCC(=O)Nc3c4c(nc5c3CCC5)CCCC4)nc2c1` [7e, 2-[(5-cyano-1,3-benzothiazol-2-yl)amino]-N-{1H,2H,3H,5H,6H,7H,8H-cyclopenta[b]quinolin-9-yl}acetamide], in that order: 13.3 ± 0.57%, 13.9 ± 0.6%, 77.4 ± 4.54 µM, 26.4 ± 1.82 µM and 13.9 ± 1.26 ×10⁻⁶ cm/s.
`O=C(CNc1nc2cc(Cl)ccc2s1)Nc1c2c(nc3c1CCC3)CCCC2` [7g, 2-[(5-chloro-1,3-benzothiazol-2-yl)amino]-N-{1H,2H,3H,5H,6H,7H,8H-cyclopenta[b]quinolin-9-yl}acetamide] returned an IC50 in series [6] of 11 ± 1.2 µM. Further, the inhibition at 1 µM amounted to 11.9 ± 0.74% in series [1] and 26.5 ± 1.45% in series [2]. Further, the CC50 at 24 h in the series “in vitro [3]” is 98.2 ± 5.74 µM; in the series “in vitro [4]” it was not below 200 µM. This molecule came in with a Papp in the series “in vitro [5]” of 2.8 ± 0.79 ×10⁻⁶ cm/s.
Take `O=C(CNc1nc2ccc([N+](=O)[O-])cc2s1)Nc1c2c(nc3c1CCC3)CCCC2` [7i, N-{1H,2H,3H,5H,6H,7H,8H-cyclopenta[b]quinolin-9-yl}-2-[(6-nitro-1,3-benzothiazol-2-yl)amino]acetamide]: the inhibition at 1 µM in series [1] was determined as 7.98 ± 0.99%; in series [2], 0.93 ± 0.08%. For the same molecule, the CC50 at 24 h was 91.3 ± 11 µM in the series “in vitro [3]” and not below 200 µM in “in vitro [4]”. The molecule further returned a Papp in “in vitro [5]” of 4.89 ± 1.5 ×10⁻⁶ cm/s.
Turning to `O=C(CNc1nc2cc([N+](=O)[O-])ccc2s1)Nc1c2c(nc3c1CCC3)CCCC2` [7j, N-{1H,2H,3H,5H,6H,7H,8H-cyclopenta[b]quinolin-9-yl}-2-[(5-nitro-1,3-benzothiazol-2-yl)amino]acetamide], the inhibition at 1 µM in series [1] worked out at 8.2 ± 0.41%; in series [2], 8.03 ± 1.37%. Also, the figures for the CC50 at 24 h in “in vitro [3]” and in “in vitro [4]” were 93.7 ± 5.38 µM and 25.83 ± 0.25 µM, respectively. In “in vitro [5]”, this molecule displayed a Papp of 1.83 ± 0.54 ×10⁻⁶ cm/s.
For `O=C(CNc1nc2cccc([N+](=O)[O-])c2s1)Nc1c2c(nc3c1CCC3)CCCC2` [7k, N-{1H,2H,3H,5H,6H,7H,8H-cyclopenta[b]quinolin-9-yl}-2-[(7-nitro-1,3-benzothiazol-2-yl)amino]acetamide], in that order: 9.62 ± 0.41%, 4.47 ± 0.58%, 51 ± 8.56 µM, not below 200 µM and 1.12 ± 0.62 ×10⁻⁶ cm/s.
The matching figures for `CSc1ccc2nc(NCC(=O)Nc3c4c(nc5c3CCC5)CCCC4)sc2c1` [7l, N-{1H,2H,3H,5H,6H,7H,8H-cyclopenta[b]quinolin-9-yl}-2-{[6-(methylsulfanyl)-1,3-benzothiazol-2-yl]amino}acetamide]: 7.56 ± 0.38%, 6.05 ± 1.77%, 173 ± 17.6 µM, not below 200 µM and 2.65 ± 0.01 ×10⁻⁶ cm/s.
As for `Cc1c(C)c2c(c(C)c1O)CCC(C)(C(=O)NCC(=O)Nc1c3c(nc4c1CCC4)CCCC3)O2` (stereo not shown) [compound 6, N-{1H,2H,3H,5H,6H,7H,8H-cyclopenta[b]quinolin-9-yl}-2-[(6-hydroxy-2,5,7,8-tetramethyl-3,4-dihydro-2H-1-benzopyran-2-yl)formamido]acetamide], the inhibition at 1 µM worked out at 3.95 ± 0.25% in series [1] and 21.5 ± 0.94% in series [2]. Also, the CC50 at 24 h in “in vitro [3]” was not below 200 µM. The same molecule gave a Papp in the series “in vitro [5]” of 15.9 ± 0.38 ×10⁻⁶ cm/s.

One may read the inhibition as the percentage by which the read-out fell short of the control. The Papp is the rate of passage across a membrane or cell layer, normalised by area and donor concentration. High values mean fast passage, low ones slow passage. The IC50 is the point on the concentration scale where inhibition reaches its midpoint.
